Counter-ions that a name gives are not always drawn. Numbered stars: 1 amine (or outer) side, 2 acyl side, 3 side chain; on linkers, the order of the positions; unused ones are H or OH. Square brackets hold non-standard residues; d marks the D form. Peptide text beside a SMILES is read from it. * marks the point of attachment. X3 = Cc1c(C)c(C)c(C[C@@H](N[*:1])C(=O)[*:2])c(C)c1C; X2 = O=C([C@@H](Cc1c2ccccc2cc2ccccc12)N[*:1])[*:2]; dDip = N[C@@H](C(=O)O)C(c1ccccc1)c1ccccc1; d1Nal = N[C@H](Cc1cccc2ccccc12)C(=O)O; Acetyl(3-pyridyl) = O=C(Cc1cccnc1)*; Fmoc = O=C(OCC1c2ccccc2-c2ccccc21)*; Cyclohexylacetyl = O=C(CC1CCCCC1)*; NHcHex = C1CCC(N*)CC1; CO = O=C([*:1])[*:2]; Propionyl = CCC(=O)*; Tfa = O=C(C(F)(F)F)*
Columns and labels:
[1] = biological target: T1, ETA (Oryctolagus cuniculus, UniProt A5A8K3); test: Endothelin Receptor Binding Assay-A (ETA), intact cell binding of [125I]-ET-1; parameters: species or system rabbit; settings: Table IIa; for IC50: rabbit renal artery vascular smooth muscle cells, read-out: Binding Assay IC50 at Receptor Subtypes ETA
T1 construct: The cells used were rabbit renal artery vascular smooth muscle cells; endogenous in cells; host or cells: rabbit renal artery vascular smooth muscle cells
T1 sequence (A5A8K3 21-427): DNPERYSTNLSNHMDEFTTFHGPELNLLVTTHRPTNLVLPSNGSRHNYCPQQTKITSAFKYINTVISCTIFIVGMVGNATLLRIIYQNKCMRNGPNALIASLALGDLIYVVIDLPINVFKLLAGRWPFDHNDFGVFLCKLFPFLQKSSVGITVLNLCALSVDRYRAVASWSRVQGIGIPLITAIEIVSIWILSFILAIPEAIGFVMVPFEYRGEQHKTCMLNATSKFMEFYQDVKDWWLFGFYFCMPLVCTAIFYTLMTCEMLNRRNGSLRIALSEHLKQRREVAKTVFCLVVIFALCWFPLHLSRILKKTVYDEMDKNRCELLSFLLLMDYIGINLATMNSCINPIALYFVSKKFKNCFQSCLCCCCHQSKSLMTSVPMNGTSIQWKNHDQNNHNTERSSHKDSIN
Procedure: The cells used were rabbit renal artery vascular smooth muscle cells grown in a 48-well dish (1 cm^2) (confluent cells).
The growth media was Dulbeccos Modified Eagles/Ham's F12 which contained 10 fetal bovine serum and antibiotics (penicillin/streptomycin/fungizone).
Second, remove the assay buffers, place the dish on ice, and add 150 μL of cold assay buffer described above to each well. […] Next, place dish in a 37° C. water bath for about 2 hours and gently agitate the dish every 15 minutes. Discard the radioactive incubation mixture in the sink and wash wells 3 times with 1 mL of cold phosphate buffered saline. Last, add […] of 0.25M sodium hydroxide, agitate for 1 hour on rotator, and then transfer the sodium hydroxide extract to gamma counting tubes and count the radioactivity.

[2] = biological target: T2, ETB (Rattus norvegicus, UniProt P21451); test: Endothelin Receptor Binding Assay-B (ETB), [125I]-ET-1 binding in rat cerebellar membranes; settings: Table IIa; for IC50: rat cerebellar membranes, read-out: Binding Assay IC50 at Receptor Subtypes ETB
T2 construct: thaw one aliquot of frozen rat cerebellar membranes; from tissue; host or cells: rat cerebellar membranes
T2 sequence (P21451 27-442): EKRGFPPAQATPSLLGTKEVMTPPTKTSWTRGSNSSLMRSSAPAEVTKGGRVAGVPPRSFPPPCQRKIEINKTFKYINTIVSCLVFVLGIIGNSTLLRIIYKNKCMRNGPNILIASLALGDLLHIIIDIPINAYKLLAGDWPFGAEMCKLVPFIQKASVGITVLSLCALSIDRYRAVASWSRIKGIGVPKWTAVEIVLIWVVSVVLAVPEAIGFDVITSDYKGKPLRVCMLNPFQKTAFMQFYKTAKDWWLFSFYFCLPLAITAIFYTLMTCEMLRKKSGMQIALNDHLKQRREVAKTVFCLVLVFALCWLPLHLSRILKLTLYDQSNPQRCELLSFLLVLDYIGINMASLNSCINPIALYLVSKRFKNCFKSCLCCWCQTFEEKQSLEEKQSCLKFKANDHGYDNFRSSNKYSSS
Procedure: The tissue is made up of 20 mM tris(hydroxymethyl)aminomethane hydrochloride (Trizma) buffer, 2 mM ethylenediaminetetraacetate, 100 μM phenylmethylsulfonyl fluoride.
First, thaw one aliquot of frozen rat cerebellar membranes (2 mg protein in 0.5 mL). Next, add 0.5 mL membrane aliquot to 4.5 mL cold tissue buffer, polytron at 7,500 revolutions per minute for 10 seconds. Finally, dilute tissue suspension 1/100 (0.1 mL suspension+9.9 mL tissue buffer), polytron again, and place ice.
Mix in 150 μL of tissue to each tube, vortex briefly, then tap to force all liquids to bottom (total assay volume=250 μL). Then place the tubes in a 37° C. water bath for 2 hours.
Add 2.5 mL cold water buffer (50 mM Trizma buffer) to each tube, filter, and then wash tube with additional 2.5 mL wash buffer and add to filter. Finally, wash filters with an additional 2.5 mL of cold wash buffer.
Count filters for radioactivity in gamma counter.

| IC50 [1] [nM] | IC50 [2] [nM] | inhibition at 10 µM ([1]; @ 10 μM, read-out: Binding Assay % Inhibition at Receptor Subtypes ETA) [%] | inhibition at 10 µM ([2]; @ 10 μM, read-out: Binding Assay % Inhibition at Receptor Subtypes ETB) [%] | Structure (SMILES) |
| --- | --- | --- | --- | --- |
| 15 | 80 |  |  | CC[C@H](C)[C@H](NC(=O)[C@@H](NC(=O)[C@H](CC(=O)O)NC(=O)[C@H](CC(C)C)NC(=O)[C@H](NC(C)=O)C(c1ccccc1)c1ccccc1)C(C)C)C(=O)N[C@@H](Cc1c[nH]c2ccccc12)C(=O)O [Example 81, Ac--D--Dip--Leu--Asp--Val--Ile--Trp] (Ac-[dDip]LDVIW-OH) |
| 1800 | 2000 |  |  | CCC(=O)N[C@@H](C(=O)N[C@@H](CC(C)C)C(=O)N[C@@H](CC(=O)O)C(=O)N[C@H](C(=O)N[C@H](C(=O)N[C@@H](Cc1c[nH]c2ccccc12)C(=O)O)[C@@H](C)CC)[C@@H](C)CC)C(c1ccccc1)c1ccccc1 [Example 31, Et--D--Dip--Leu--Asp--Ile--Ile--Trp] (Propionyl-[dDip]LDIIW-OH) |
| 250 | 900 |  |  | CC[C@H](C)[C@H](NC(=O)[C@H](CC(=O)O)NC(=O)[C@H](CC(C)C)NC(=O)[C@H](NC(=O)C(F)(F)F)C(c1ccccc1)c1ccccc1)C(=O)N[C@H](C(=O)N[C@@H](Cc1c[nH]c2ccccc12)C(=O)O)[C@@H](C)CC [Example 39, CF3 CO--D--Dip--Leu--Asp--Ile--Ile--Trp] (Tfa-[dDip]LDIIW-OH) |
| 5000 | 180 |  |  | CC[C@H](C)[C@H](NC(=O)[C@H](CC(=O)O)NC(=O)[C@H](CC(C)C)NC(=O)[C@H](NC(=O)Cc1cccnc1)C(c1ccccc1)c1ccccc1)C(=O)N[C@H](C(=O)N[C@@H](Cc1c[nH]c2ccccc12)C(=O)O)[C@@H](C)CC [Example 33, Pya--D--Dip--Leu--Asp--Ile--Ile--Trp] ({Acetyl(3-pyridyl)}-[dDip]LDIIW-OH) |
| 5860 | 1210 |  |  | CC[C@H](C)[C@H](NC(=O)[C@H](CC(=O)O)NC(=O)[C@H](CC(C)C)NC(=O)[C@H](N)Cc1c2ccccc2cc2ccccc12)C(=O)N[C@H](C(=O)N[C@@H](Cc1c[nH]c2ccccc12)C(=O)O)[C@@H](C)CC [Example 54, D--Ana--Leu--Asp--Ile--Ile--Trp] (H-[X2]LDIIW-OH) |
| > 10000 | 220 |  |  | CC[C@H](C)[C@H](NC(=O)[C@H](CC(=O)O)NC(=O)[C@H](CC(C)C)NC(=O)[C@@H](Cc1ccccc1)NC(C)=O)C(=O)N[C@H](C(=O)N[C@@H](Cc1ccc(O)cc1)C(=O)O)[C@@H](C)CC [Example 89, Ac--D--Phe--Leu--Asp--Ile--Ile--Tyr] (Ac-[dF]LDIIY-OH) |
| 1000 | 8 |  |  | CC[C@H](C)[C@H](NC(=O)[C@H](Cc1ccccc1)NC(=O)[C@H](CC(C)C)NC(=O)[C@H](NC(C)=O)C(c1ccccc1)c1ccccc1)C(=O)N[C@H](C(=O)N[C@@H](Cc1c[nH]c2ccccc12)C(=O)O)[C@@H](C)CC [Example 16, Ac--D--Dip--Leu--Phe--Ile--Ile--Trp] (Ac-[dDip]LFIIW-OH) |
| 480 | 33 |  |  | CC[C@H](C)[C@H](NC(=O)[C@H](CCCCN)NC(=O)[C@H](CC(C)C)NC(=O)[C@H](NC(C)=O)C(c1ccccc1)c1ccccc1)C(=O)N[C@H](C(=O)N[C@@H](Cc1c[nH]c2ccccc12)C(=O)O)[C@@H](C)CC [Example 69, Ac--D--Dip--Leu--Lys--Ile--Ile--Trp] (Ac-[dDip]LKIIW-OH) |
| 6000 | 6000 |  |  | CC[C@H](C)[C@H](NC(=O)[C@H](CC(=O)O)NC(=O)[C@H](CC(C)C)NC(=O)[C@H](NC(=O)OCC1c2ccccc2-c2ccccc21)C(c1ccccc1)c1ccccc1)C(=O)N[C@H](C(=O)N[C@@H](Cc1c[nH]c2ccccc12)C(=O)O)[C@@H](C)CC [Example 30, Fmoc--D--Dip--Leu--Asp--Ile--Ile--Trp] (Fmoc-[dDip]LDIIW-OH) |
| 8000 | > 1000 |  |  | CC[C@H](C)[C@H](NC(=O)[C@H](CC(=O)O)NC(=O)[C@H](CC(C)C)NC(=O)[C@@H](Cc1ccccc1)NC(C)=O)C(=O)N[C@@H](C)C(=O)N[C@@H](Cc1c[nH]c2ccccc12)C(=O)O [Example 82, Ac--D--Phe--Leu--Asp--Ile--Ala--Trp] (Ac-[dF]LDIAW-OH) |
| 3700 | 6300 |  |  | CC[C@H](C)[C@H](NC(=O)[C@H](CC(=O)O)NC(=O)[C@H](CC(C)C)NC(=O)[C@H](NC(C)=O)C(c1ccccc1)c1ccccc1)C(=O)N[C@H](C(=O)N[C@@H](Cc1ccc(O)cc1)C(=O)O)[C@@H](C)CC [Example 88, Ac--D--Dip--Leu--Asp--Ile--Ile--Tyr] (Ac-[dDip]LDIIY-OH) |
| 6000 | 3870 |  |  | CC[C@H](C)[C@H](NC(=O)[C@H](CC(=O)O)NC(=O)[C@H](CC(C)C)NC(=O)[C@H](N)Cc1c(C)c(C)c(C)c(C)c1C)C(=O)N[C@H](C(=O)N[C@@H](Cc1c[nH]c2ccccc12)C(=O)O)[C@@H](C)CC [Example 52, D--Pmp--Leu--Asp--Ile--Ile--Trp] (H-[X3]LDIIW-OH) |
| 300 | 450 |  |  | CC[C@H](C)[C@H](NC(=O)[C@H](CC(=O)O)NC(=O)[C@H](CC(C)C)NC(=O)[C@@H](Cc1cccc2ccccc12)NC(C)=O)C(=O)N[C@H](C(=O)N[C@@H](Cc1c[nH]c2ccccc12)C(=O)O)[C@@H](C)CC [Example 45, Ac-1-D--Nal--Leu--Asp--Ile--Ile--Trp] (Ac-[d1Nal]LDIIW-OH) |
| > 1000 | 250 |  |  | CC[C@H](C)[C@H](NC(=O)[C@H](CC(=O)O)NC(=O)[C@H](NC(C)=O)C(c1ccccc1)c1ccccc1)C(=O)N[C@H](C(=O)N[C@@H](Cc1c[nH]c2ccccc12)C(=O)O)[C@@H](C)CC [Example 94, Ac--D--Dip--Asp--Ile--Ile--Trp] (Ac-[dDip]DIIW-OH; C-terminus assumed) |
| 320 | 5000 |  |  | CC[C@H](C)[C@H](NC(=O)[C@H](CC(=O)O)NC(=O)[C@H](CC(C)C)NC(=O)[C@H](NC(C)=O)C(c1ccccc1)c1ccccc1)C(=O)N[C@H](C(=O)N[C@@H](Cc1c[nH]c2ccccc12)C(N)=O)[C@@H](C)CC [Example 24, Ac--D--Dip--Leu--Asp--Ile--Ile--Trp--NH2] (Ac-[dDip]LDIIW-NH2) |
| 3400 | 200 |  |  | CC[C@H](C)[C@H](NC(=O)[C@H](CC(=O)O)NC(=O)[C@H](CC(C)C)NC(=O)[C@H](NC(=O)CC1CCCCC1)C(c1ccccc1)c1ccccc1)C(=O)N[C@H](C(=O)N[C@@H](Cc1c[nH]c2ccccc12)C(=O)O)[C@@H](C)CC [Example 34, Cxl--D--Dip--Leu--Asp--Ile--Ile--Trp] (Cyclohexylacetyl-[dDip]LDIIW-OH) |
| 6430 | 833 |  |  | CC[C@H](C)[C@H](NC(=O)[C@H](CC(N)=O)NC(=O)[C@H](CC(C)C)NC(=O)[C@H](N)C(c1ccccc1)c1ccccc1)C(=O)N[C@H](C(=O)N[C@@H](Cc1c[nH]c2ccccc12)C(=O)O)[C@@H](C)CC [Example 70, D--Dip--Leu--Asn--Ile--Ile--Trp] (H-[dDip]LNIIW-OH) |
|  |  | 37.4 | 64.7 | CC[C@H](C)[C@H](NC(=O)[C@H](Cc1ccccc1)NC(=O)[C@H](CC(=O)O)NC(=O)[C@@H](Cc1ccccc1)NC(C)=O)C(=O)N[C@@H](Cc1c[nH]c2ccccc12)C(=O)O [Example 93, Ac--D--Phe--Asp--Phe--Ile--Trp] (Ac-[dF]DFIW-OH) |

| Structure (SMILES) | IC50 [1] [nM] | IC50 [2] [nM] | inhibition at 10 µM ([1]; @ 10 μM, read-out: Binding Assay % Inhibition at Receptor Subtypes ETA) [%] | inhibition at 10 µM ([2]; @ 10 μM, read-out: Binding Assay % Inhibition at Receptor Subtypes ETB) [%] |
| --- | --- | --- | --- | --- |
| CC[C@H](C)[C@H](NC(=O)[C@H](CC(=O)O)NC(=O)[C@H](CC(C)C)NC(=O)[C@H](NC(=O)NC1CCCCC1)C(c1ccccc1)c1ccccc1)C(=O)N[C@H](C(=O)N[C@@H](Cc1c[nH]c2ccccc12)C(=O)O)[C@@H](C)CC [Example 36, Cxl(U)--D--Dip--Leu--Asp--Ile--Ile--Trp] ({NHcHex-CO}-[dDip]LDIIW-OH) | 820 | 50 |  |  |

— US5773414A, “Endothelin antagonists” (Warner-Lambert Company, priority 1997, dated 1998)
